The assay concerns Phi6 bacteriophage virus. In words: Static detergent-based virus inactivation, infectivity by plaque assay. It is filed as cell-based. As to conditions: mAb 15 mg/mL, 22-25° C.; for Time to Complete Inactivation: Phi6. Here is the method:
The purpose of this study was to examine detergent-based virus inactivation kinetics. In this representative experiment, two different concentrations (0.1% and 1.0% v/v) of a detergent, Triton X-100 were used to inactivate a bacteriophage virus, Phi6. The objective was to determine the exposure time required for complete inactivation.
A monoclonal antibody was purified by standard Protein A chromatography and prepared at a concentration of 15 mg/mL. The virus spike was added and vortexed to ensure a well-mixed system. The Phi6 target spike level was 1×10^8 pfu/mL. Detergent was added to reach the desired concentrations of 0.1% and 1.0% v/v. At various time points, a sample was removed and quenched by adding it to buffer at a 1:1000 dilution ratio. The tubes were vortexed after the detergent addition. These experiments were carried out at room temperature, 22-25° C. Control samples at the initial and final time points were also analyzed. The control samples were diluted similarly to the actual samples using the background buffer.

The results in this text go back to patent publication US11547957B2, “Method of maintaining narrow residence time distributions in continuous flow systems” (EMD Millipore Corporation, priority 2017, dated 2023).

Turning to Triton X-100, the “Time to Complete Inactivation” value (0.1% v/v Triton X-100) is not above 1 min; the “Time to Complete Inactivation” value (0.1% v/v Triton X-100, listed as Triton X100) is not above 1 min; the “Time to Complete Inactivation” value (1.0% v/v Triton X-100) is not above 1 min; the “Time to Complete Inactivation” value (1.0% v/v Triton X-100, listed as Triton X100) is on record as not above 1 min. Moreover, the “Phi6 LRV” value is not below 5.2 (0.1% v/v Triton X-100, inactivation time 1 min); not below 5.2 (0.1% v/v Triton X-100, inactivation time 2 min); not below 5.2 (0.1% v/v Triton X-100, inactivation time 3 min); not below 5.2 (0.1% v/v Triton X-100, inactivation time 4 min); not below 5.2 (0.1% v/v Triton X-100, inactivation time 5 min); not below 5.2 (0.1% v/v Triton X-100, inactivation time 15 min). The “Phi6 LRV” value was not below 5.2 (0.1% v/v Triton X-100, inactivation time 30 min); not below 6.2 (1.0% v/v Triton X-100, inactivation time 1 min); not below 6.2 (1.0% v/v Triton X-100, inactivation time 2 min); not below 6.2 (1.0% v/v Triton X-100, inactivation time 3 min); not below 6.2 (1.0% v/v Triton X-100, inactivation time 4 min); not below 6.2 (1.0% v/v Triton X-100, inactivation time 5 min). Also, the “Phi6 LRV” value runs as follows: (1.0% v/v Triton X-100, inactivation time 15 min) not below 6.2; (1.0% v/v Triton X-100, inactivation time 30 min) not below 6.2.
